Reference: patent publication US20080280837A1, “Biologically Active Compounds with Anti-Angiogenic Properties” (priority 2004, published 2008)

Experiments:
SSTR-4 = biological target: T1, SSTR-4 (Homo sapiens, UniProt P31391); assay: Radioligand binding screen against somatostatin subtype SSTR-4 (SST4 assay); conditions: Table 8; read-out: Ki SSTR4
T1 construct: expressed in transfected cells
Procedure: (§1) Receptor membrane preparations containing the desired cloned receptor (for example cloned human somatostatin receptor subtype 5, SSTR5) and radio-labeled ligand (for example 3-[^125I]iodotyrosyl^11 Somatostatin-14)) were diluted at the concentration required for testing and according to the specific parameters associated with the selected receptor-ligand combination, including receptor Bmax, ligand Kd and any other parameters necessary to optimize the experimental conditions. When tested for competition activity to the reference ligand, “compound 1” was mixed with membrane suspension and the radiolabeled reference ligand (with or without an excess of cold ligand to the receptor for determination of non-specific binding) and incubated at the temperature required by internal standard operating procedures. Following incubation, the binding reaction was stopped by the addition of ice-cold washing buffer and filtered on appropriate filters, which are then counted. Data analysis and curve-fitting was performed with XLfit (IDBS).
(§2) 10 mM solutions of test compounds in 100% DMSO were prepared. ˜160 μl was used for each dilution (20 μl/well in triplicate).
(§3) A 1.25 mM assay stock was prepared by making a 1:8 dilution of the 10 mM solution. (To 30 μL of the 10 mM solution was added 210 μL milli-Q H2O. A 1:5 dilution series in milli-Q H2O was then prepared.
Assays were performed in triplicate at each concentration within the 1:5 dilution series: 250 μM, 50 μM, 10 μM, […], 0.4 μM, 0.08 μM, 0.016 μM, 0.0032 μM, etc. (for SST4 assay) and 125 μM, 10 μM, 2 μM, 1 μM, 0.5 μM, etc (for SST5 assay).
(§4) In primary screening experiments compounds were tested in duplicate for a particular concentration.

[1] = system: Human Umbilical Vein Endothelial Cells (HUVEC); assay: Endothelial cell proliferation assay (MTS); assay type: cell-based; conditions: 48 hrs
Procedure: Human Umbilical Vein Endothelial Cells (HUVEC from Clonetics) were plated in 96 well plates at 1000 cell per well in EGM-2 medium (Clonetics). Cells were grown overnight at 37° C. in 5% CO2. Fresh EGM-2 medium containing compound at the desired concentration was added to the wells and the cells allowed to grow for a further 48 hrs. A MTS (Promega) colorimetric assay was performed after 48 hrs to determine cell growth according to the manufacturers instructions. Results are presented in terms of percentage growth.

SSTR-1 = biological target: T2, SSTR-1 (Homo sapiens, UniProt P30872); assay: Radioligand binding screen against somatostatin subtype SSTR-1; conditions: Table 8; read-out: Ki SSTR1
T2 construct: expressed in transfected cells
T2 sequence (P30872 whole entry, species assumed): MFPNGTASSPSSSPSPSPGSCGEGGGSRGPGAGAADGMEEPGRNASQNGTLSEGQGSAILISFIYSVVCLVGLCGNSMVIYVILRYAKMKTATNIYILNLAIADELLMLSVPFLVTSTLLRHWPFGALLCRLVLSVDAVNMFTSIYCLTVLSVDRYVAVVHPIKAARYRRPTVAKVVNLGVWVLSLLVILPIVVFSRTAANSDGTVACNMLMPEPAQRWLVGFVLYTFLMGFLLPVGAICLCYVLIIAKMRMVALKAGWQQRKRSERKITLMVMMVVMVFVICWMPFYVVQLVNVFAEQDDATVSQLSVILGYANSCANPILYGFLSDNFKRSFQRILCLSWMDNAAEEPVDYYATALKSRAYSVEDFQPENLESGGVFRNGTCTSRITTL
Procedure: as §1, §2, §3, §4

SSTR-2 = biological target: T3, SSTR-2 (Homo sapiens, UniProt P30874); assay: Radioligand binding screen against somatostatin subtype SSTR-2; conditions: Table 8; for Ki: read-out: Ki SSTR2
T3 construct: expressed in transfected cells
T3 sequence (P30874 whole entry): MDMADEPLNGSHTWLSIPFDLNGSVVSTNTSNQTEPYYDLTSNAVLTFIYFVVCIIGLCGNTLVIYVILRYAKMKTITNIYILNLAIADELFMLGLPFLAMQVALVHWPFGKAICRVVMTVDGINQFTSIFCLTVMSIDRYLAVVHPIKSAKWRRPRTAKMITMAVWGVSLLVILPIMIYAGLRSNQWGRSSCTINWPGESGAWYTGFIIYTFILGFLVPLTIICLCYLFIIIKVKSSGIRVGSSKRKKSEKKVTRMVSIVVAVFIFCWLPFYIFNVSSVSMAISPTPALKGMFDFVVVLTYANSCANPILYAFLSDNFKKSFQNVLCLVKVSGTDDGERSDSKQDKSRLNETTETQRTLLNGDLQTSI
Procedure: as §1, §2, §3, §4

SSTR-3 = biological target: T4, SSTR-3 (Homo sapiens, UniProt P32745); assay: Radioligand binding screen against somatostatin subtype SSTR-3; conditions: Table 8; for Ki: read-out: Ki SSTR3; for IC50: shown where Ki could not be determined (NoModel), read-out: IC50 SSTR3 (in parentheses)
T4 construct: expressed in transfected cells
T4 sequence (P32745 whole entry): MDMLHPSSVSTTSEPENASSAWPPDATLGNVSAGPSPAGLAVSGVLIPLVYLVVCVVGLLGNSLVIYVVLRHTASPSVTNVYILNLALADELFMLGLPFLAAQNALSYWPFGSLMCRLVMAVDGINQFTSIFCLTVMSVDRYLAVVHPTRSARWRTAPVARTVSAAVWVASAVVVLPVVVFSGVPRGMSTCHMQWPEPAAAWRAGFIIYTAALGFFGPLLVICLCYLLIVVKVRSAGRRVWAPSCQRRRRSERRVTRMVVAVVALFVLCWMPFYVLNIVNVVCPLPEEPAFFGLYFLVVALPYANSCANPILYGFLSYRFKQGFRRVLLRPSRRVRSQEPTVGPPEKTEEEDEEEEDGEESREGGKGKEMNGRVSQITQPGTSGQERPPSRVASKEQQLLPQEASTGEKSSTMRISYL
Procedure: as §1, §2, §3, §4

[2] = biological target: T5, Human SST5 somatostatin receptor (SSTR5) (Homo sapiens, UniProt P35346); assay: Filter plate assay for SST5 receptor, displacement of [125I]SST-14; assay type: binding; conditions: for Ki / IC50: Table 8; for IC50: shown where Ki could not be determined (NoModel), read-out: IC50 SSTR5 (in parentheses)
T5 construct: expressed in transfected cells; host or cells: HEK-293 EBNA
T5 sequence (P35346 whole entry): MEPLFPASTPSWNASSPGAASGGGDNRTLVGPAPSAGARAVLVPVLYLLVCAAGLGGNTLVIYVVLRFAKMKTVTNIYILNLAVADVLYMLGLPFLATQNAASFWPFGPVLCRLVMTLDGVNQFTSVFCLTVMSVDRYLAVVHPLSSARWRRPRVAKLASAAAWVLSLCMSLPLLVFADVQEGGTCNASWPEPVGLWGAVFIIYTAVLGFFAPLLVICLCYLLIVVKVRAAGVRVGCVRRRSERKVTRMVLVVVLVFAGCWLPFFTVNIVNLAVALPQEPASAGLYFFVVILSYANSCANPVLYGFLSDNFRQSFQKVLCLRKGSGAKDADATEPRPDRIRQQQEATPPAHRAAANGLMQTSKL
Procedure, shortened: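 HEK-293 EBNA membranes expressing human SST5 (5.5 μg) incubated 60 min at 25 °C with 4 nM [125I]SST-14 and compound in pH 7.5 Tris/EGTA/MgCl2/sucrose buffer. Bound radioactivity collected on PEI-coated glass fiber filters and counted; triplicate 1:5 dilution series from 125 μM, non-specific binding with excess cold ligand.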

[3] = Solubility of salts of compound 1; assay type: physicochemical; conditions: for Solubility in Water: overnight
[4] = system: chicken embryo chorioallantoic membrane (CAM) vasculature; assay: Early chicken embryo chorioallantoic membrane (earlyCAM) assay; assay type: in vivo; conditions: dose of 10 nmol
Procedure: Vein diameter was included as a measure of vessel growth. Where there was more than one major vein branch, the diameters of both were added together to give a total vein diameter. In the control CAM there were two well developed vein branches of similar diameter. In contrast, in the treated CAM there was a single major vein branch. Total vein diameter is 239 pixels in the control CAM, and only 107 pixels in the treated CAM.
When “compound 1” was applied to the CAM, there were dose responsive reductions in CAM growth and vasculature. The effects on CAM growth and vessel parameters were expressed as pixel measures (Table 1) and also as a percentage of the vehicle treated control group (FIG. 1). Vein lengths were reduced at all dose levels of “compound 1”, both in pixel and percentage terms, with a reduction to 67% of control at 5 nmol (p<0.05). […] When artery and vein lengths were combined to give total vessel length there was a significant reduction at the 5 nmol level (FIG. 1; p<0.05). A strong trend to reduced CAM growth with increasing doses of “compound 1” was also present.

T1 sequence (P31391 whole entry): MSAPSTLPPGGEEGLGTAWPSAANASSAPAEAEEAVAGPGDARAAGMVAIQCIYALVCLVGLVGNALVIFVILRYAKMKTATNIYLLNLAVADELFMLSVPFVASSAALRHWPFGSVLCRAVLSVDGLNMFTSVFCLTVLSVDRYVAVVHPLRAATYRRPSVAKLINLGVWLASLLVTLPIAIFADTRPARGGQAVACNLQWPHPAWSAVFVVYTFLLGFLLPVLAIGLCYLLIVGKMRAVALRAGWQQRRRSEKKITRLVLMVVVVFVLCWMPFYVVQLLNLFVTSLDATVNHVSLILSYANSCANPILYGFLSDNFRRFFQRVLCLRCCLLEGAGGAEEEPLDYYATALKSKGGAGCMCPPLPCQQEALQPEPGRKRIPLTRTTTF

| Compound | Ki (SSTR-4) [µM] | Percent cell growth at 125 µM [1] [%] | Percent cell growth at 250 µM [1] [%] | Ki (SSTR-1) [µM] | Ki (SSTR-2) [µM] | Ki (SSTR-3) [µM] | Ki [2] [µM] | SSTR5 Inhib 0.5 uM % (inhibition of binding of SST-14 to SSTR5) [2] [%] | SSTR5 Inhib 10 uM % (inhibition of binding of SST-14 to SSTR5) [2] [%] | also measured |
| --- | --- | --- | --- | --- | --- | --- | --- | --- | --- | --- |
| COC[C@H]1O[C@H](OCc2ccc3ccccc3c2)[C@H](NC(=O)CCN)[C@H](OCc2ccc3ccccc3c2)[C@@H]1O [Compound 15] | 2.26 | -78 | -67 | 1.96 | 1.04 | 0.792 | 0.073 | – | – | – |
| CO[C@H]1[C@H](O)[C@@H](COCc2ccc3ccccc3c2)OC(OCc2ccc(Cl)cc2)[C@@H]1NC(=O)C1CCCN(C(=N)N)C1 (stereo partly drawn) [Compound 14] | > 10 | -95 | -90 | > 10 | 1.21 | 0.34 | 0.549 | – | – | – |
| COC[C@H]1O[C@H](OCCc2ccccc2)[C@H](NC(=O)CCCN)[C@@H](OCc2ccc3ccccc3c2)[C@@H]1O [Methanesulphonate] | – | – | – | – | – | – | – | – | – | Solubility in Water [3]: 5170 µg/mL |
| COC[C@H]1OC(OCc2ccc(Cl)cc2)[C@H](NC(=O)CCCN=C(N)N)[C@H](OCc2ccc3ccccc3c2)[C@@H]1O (stereo partly drawn) [Compound 4] | 1.42 | -98 | -90 | 1.59 | 0.842 | 0.188 | 0.53 | – | – | – |
| COC[C@H]1O[C@H](OCCc2ccccc2)[C@H](NC(=O)CCCN)[C@@H](OCc2ccc3ccccc3c2)[C@@H]1O [Succinate] | – | – | – | – | – | – | – | – | – | Solubility in 5% Glucose ([3]; 5% Glucose, Day 3): 4980 µg/mL; Solubility in Water [3]: 8520 µg/mL |
| COC[C@H]1OC(OCc2ccc3ccccc3c2)[C@H](NC(=O)CCN)[C@H](OCc2ccccc2)[C@@H]1O (stereo partly drawn) [Compound 6] | > 10 | 24 | -78 | > 10 | – | – | 0.151 | – | – | IC50 (SSTR-2; shown where Ki could not be determined (NoModel), read-out: IC50 SSTR2 (in parentheses)): 29.2 µM; IC50 (SSTR-3): 0.206 µM |
| COC[C@H]1O[C@@H](OCc2ccc3ccccc3c2)[C@H](NC(=O)CCCN)[C@@H](OCc2ccc(Cl)cc2)[C@@H]1O [Compound 12] | > 10 | -95 | -71 | > 10 | 5.06 | – | 0.046 | – | – | IC50 (SSTR-3): 0.429 µM |
| COC[C@H]1OC(OCCc2ccccc2)[C@H](NC(=O)CCN)[C@H](OCc2ccc3ccccc3c2)[C@@H]1O (stereo partly drawn) [Compound 5] | 8.54 | -89 | -57 | 2.55 | 1.57 | 0.285 | 0.153 | – | – | – |
| COC[C@H]1O[C@H](OCc2ccc3ccccc3c2)[C@H](NC(=O)CCCN)[C@@H](OCc2ccc(Cl)cc2)[C@@H]1O [Compound 13] | > 10 | 58 | -80 | > 10 | > 10 | – | 0.062 | – | – | IC50 (SSTR-3): 0.476 µM |
| COC[C@H]1OC(OCc2ccc(Cl)cc2)[C@H](NC(=O)CCN)[C@H](OCc2ccc3ccccc3c2)[C@@H]1O (stereo partly drawn) [Compound 3] | 4.58 | -75 | -39 | 3.73 | 1.23 | – | – | – | – | IC50 (SSTR-3): 0.127 µM; IC50 [2]: 0.147 µM |
| COC[C@H]1OC(OCc2ccc3ccccc3c2)[C@H](NC(=O)CCN)[C@H](OCc2ccc3ccccc3c2)[C@@H]1O (stereo partly drawn) [Compound 16] | 4.38 | – | – | 2.37 | 0.86 | 0.441 | 0.085 | – | – | – |
| COC[C@H]1OC(OCc2ccc3ccccc3c2)[C@H](NC(=O)CCCN)[C@@H](OCc2ccc3ccccc3c2)[C@@H]1O (stereo partly drawn) [Compound 11] | 3.98 | 29 | -53 | 9.22 | 4.85 | – | – | – | – | IC50 (SSTR-3): 0.002 µM; IC50 [2]: 0.003 µM |
| COC[C@H]1OC(OCc2ccc3ccccc3c2)[C@H](NC(=O)CCN)[C@H](OCc2ccc(Cl)cc2)[C@@H]1O (stereo partly drawn) [Compound 7] | 9.13 | -81 | -63 | 6.09 | 0.498 | 0.131 | 0.022 | – | – | – |
| COC[C@H]1O[C@@H](OCc2ccc3ccccc3c2)[C@H](NC(=O)CCN=C(N)N)[C@H](OCc2ccc3ccccc3c2)[C@@H]1O [Compound 8] | 2.77 | 66 | -18 | 3.09 | 2.01 | 0.599 | 0.598 | – | – | – |
| octeotride [reference compound] | – | – | – | – | – | – | – | – | – | Effect on the CAM vasculature [4]: did not appear to have any significant effect |
| COC[C@H]1OC(OCc2ccc(Cl)cc2)[C@H](NC(=O)CCCN=C(N)N)[C@H](OCc2ccc(Cl)cc2)[C@@H]1O (stereo partly drawn) [Compound 2] | 3.26 | -83 | -91 | 2.28 | 0.728 | 0.203 | 0.353 | – | – | – |
| COC[C@H]1OC(OCc2ccc3ccccc3c2)[C@H](NC(=O)CCCNC(=N)N)[C@H](OCc2ccc3ccccc3c2)[C@@H]1O (stereo partly drawn) [Compound 60] | – | – | – | – | – | – | – | 57 | 90 | – |
| CSC1O[C@H](COCc2ccc3ccccc3c2)[C@@H](O)[C@@H](OCc2ccccc2)[C@H]1NC(=O)CCNC(=N)N (stereo partly drawn) [Compound 89] | – | – | – | – | – | – | – | 58 | 86 | – |
| CSC1O[C@H](COCc2ccc(-c3ccccc3)cc2)[C@@H](O)[C@@H](OCc2ccc3ccccc3c2)[C@H]1NC(=O)CCCN (stereo partly drawn) [Compound 127] | – | – | – | – | – | – | – | 48 | 80 | – |
| CO[C@H]1[C@H](O)[C@@H](COCc2ccc(-c3ccccc3)cc2)OC(OCc2ccc(-c3ccccc3)cc2)[C@@H]1NC(=O)CNC(=N)N (stereo partly drawn) [Compound 70] | – | – | – | – | – | – | – | 18 | 89 | – |
| COC1C(O)C(COCc2ccc(Cl)cc2)OC(OCc2ccc(-c3ccccc3)cc2)C1NC(=O)CCNC(=N)N (stereo not drawn) [Compound 78] | – | – | – | – | – | – | – | 43 | 88 | – |
| COC[C@H]1OC(OCc2ccc(Cl)cc2)[C@H](NC(=O)CCCN)[C@@H](OCc2ccc(-c3ccccc3)cc2)[C@@H]1O (stereo partly drawn) [Compound 30] | – | – | – | – | – | – | – | 80 | 96 | – |
| CSC1O[C@H](COCc2ccccc2)[C@@H](O)[C@@H](OCc2ccc(Cl)cc2)[C@H]1NC(=O)CNC(=N)N (stereo partly drawn) [Compound 45] | – | – | – | – | – | – | – | 71 | 93 | – |
| COC[C@H]1OC(OCc2ccc3ccccc3c2)[C@H](NC(=O)CNC(=N)N)[C@@H](OCc2ccc3ccccc3c2)[C@@H]1O (stereo partly drawn) [Compound 137] | – | – | – | – | – | – | – | 43 | 79 | – |
| CO[C@H]1[C@H](O)[C@@H](COCc2ccc(Cl)cc2)OC(OCc2ccc(Cl)cc2)[C@@H]1NC(=O)CCNC(=N)N (stereo partly drawn) [Compound 152] | – | – | – | – | – | – | – | 47 | 76 | – |
